Publication PMC4635503, “High-affinity nitrate/nitrite transporters NrtA and NrtB of Aspergillus nidulans exhibit high specificity and different inhibitor sensitivity” (Microbiology, 2015)
Converted amounts (≈) assume the structure as drawn. “And” between values parts separate entries of the source, which are not always exact repeats. Equal values may be shown once. Read-outs that look alike come from different tables or passages of the source.

What was measured:
NrtA [1] = molecular target: T1, NrtA (Emericella nidulans, UniProt P22152); experiment: cell-based; parameters: mutant nrtB110 (expressing a functional NrtA); endogenous in cells; host or cells: Aspergillus nidulans mycelium, knockout strain nrtB110, nitrate-induced; species or system Aspergillus nidulans; conditions: for nature of inhibition of nitrate transport (Lineweaver–Burk): NrtA (expressed in nrtB110)
T1 sequence (P22152 whole entry): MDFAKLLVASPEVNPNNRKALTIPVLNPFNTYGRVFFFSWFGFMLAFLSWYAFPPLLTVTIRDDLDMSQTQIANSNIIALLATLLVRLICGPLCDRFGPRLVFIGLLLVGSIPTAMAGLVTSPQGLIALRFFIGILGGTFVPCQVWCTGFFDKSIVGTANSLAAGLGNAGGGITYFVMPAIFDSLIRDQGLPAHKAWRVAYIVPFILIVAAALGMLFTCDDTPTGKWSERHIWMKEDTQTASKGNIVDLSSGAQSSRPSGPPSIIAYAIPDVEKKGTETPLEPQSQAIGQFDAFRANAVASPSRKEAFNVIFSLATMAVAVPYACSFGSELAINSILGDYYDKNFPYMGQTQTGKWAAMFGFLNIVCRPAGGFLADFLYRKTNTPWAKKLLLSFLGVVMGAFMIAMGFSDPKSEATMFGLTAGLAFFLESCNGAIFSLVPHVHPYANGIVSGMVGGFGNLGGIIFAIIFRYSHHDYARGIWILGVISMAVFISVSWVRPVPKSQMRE
Experimental: (§1) These were performed on cultures grown in liquid AMM with 5 mM urea as nitrogen source for a total of 6.5 h at 37 °C ([Brownlee & Arst, 1983]). Urea was used as it (i) is a neutral nitrogen source, neither inducing nor repressing nitrate transport, (ii) has been used routinely in the past and (iii) permitted direct comparison with previously published results. […] Transporter activity was induced by the addition of 10 mM sodium nitrate 100 min prior to assay as described previously ([Brownlee & Arst, 1983]). Assays were carried out in triplicate, generally at pH 6.5, on three independently grown cultures for each strain and expressed as nmol nitrate removed from the medium min^ − 1 (mg dried mycelium)^ − 1, as discussed before ([Brownlee & Arst, 1983]; [Kinghorn et al., 2005]; [Unkles et al., 2012]). Both carbonic acid and bicarbonate chemical species can occur at pH 6.5. Thus potential inhibition of nitrate transport by carbonic acid/bicarbonate was tested at pH 6.5 and bicarbonate at pH 8.3.
(§2) To effectively assess net uptake, it is necessary that any export, i.e. simultaneous transport in the reverse direction, is minimal.
(§3) Values of K m and V max were calculated by linear regression of Lineweaver–Burk analyses (1/v against 1/s, where v is net uptake and s is substrate concentration). The kinetic values of nitrate transport by the WT and mutants were compared with those from a previous report ([Unkles et al., 2001]). […] Therefore the kinetic values in the absence of inhibitors from the present study were used as control values. Each K i value was determined by regression of the rates of net nitrate uptake transport versus the range of concentrations of a particular inhibitor: linear or nonlinear regression was used, depending on which type provided the highest r ^2 value. Calculated from each regression was the concentration of the inhibitor that reduced net nitrate uptake rate by 50 % of the control (without inhibitor) rate, which was assessed as the K i value. Lineweaver–Burk analyses were carried out to determine the nature of the inhibition of nitrate transport for each inhibitor.

[2] = system: nitrate transport by NrtA and NrtB; experiment: Net nitrate transport inhibition assays, strain not specified; type: cell-based, Aspergillus nidulans; conditions: net nitrate transport inhibition assays (Tables 3 and 4)
Experimental: as §1, §2

NrtB [3] = type: cell-based, Aspergillus nidulans; conditions: for Nitrate uptake ± SE: nrtA747 (NrtB); for nature of inhibition of nitrate transport (Lineweaver–Burk): NrtB (expressed in nrtA1); for Ki: inhibitor concentration reducing net nitrate uptake rate by 50 % of control
Experimental: as §1, §2, §3

[4] = system: A. nidulans WT and mutant strains; type: cell-based, Aspergillus nidulans; conditions: for growth stunting on solid AMM: up to 100 mM, 1 mM nitrate (or proline) as sole nitrogen source, data not shown
Experimental: (§4) Fungal growth tests were carried out in standard Petri dishes containing defined Aspergillus minimal medium (AMM) agar ([Cove, 1976]), with sodium nitrate or proline as the sole nitrogen source, at 1 or 10 mM concentration. Strains were tested for inhibition by bicarbonate, formate, oxalate, chlorite, sulphite (all purchased as the sodium salt), chlorate (potassium salt), malonate (acid form) or caesium (chloride salt). Stock aqueous solutions of inhibitors were adjusted to pH 6.5 and prepared immediately before use. It should be noted that at pH 6.5, bicarbonate is in approximately 50 % equilibrium with carbonic acid. […] Cultures were incubated routinely at 37 °C for 48 h, and the growth response was scored.
(§5) Each treatment was carried out in five replicates. […] As caesium was utilized as a chloride salt, a control for potential inhibition by chloride was assessed, by growth on 100 mM sodium chloride (Fig. 4).
Unlike chlorate, commercial chemical supplies of chlorite typically contain a relatively high percentage (20 %) of contaminants. […] The pH of this solution was adjusted to 6.5 and aliquots incorporated into solid AMM (with nitrate or proline as the nitrogen source) at final concentrations equivalent to those that would be present in agar medium containing 10 mM chlorite (i.e. 1.56 mM sodium chloride, 0.28 mM sodium chlorate, 0.68 mM sodium hydroxide and 0.17 mM sodium carbonate).

NrtA, NrtB (WT strain) = experiment: Net nitrate uptake assay and kinetics, WT strain; type: cell-based, Aspergillus nidulans; conditions: mean ± SE; for Ki: WT (NrtA, NrtB), inhibitor concentration reducing net nitrate uptake rate by 50 % of control
Experimental: as §1, §2, §3

[5] = system: A. nidulans double mutant tbl110 (nrtA747 nrtB110, neither transporter); experiment: microbe, parasite or virus in culture; type: cell-based, Aspergillus nidulans; conditions: T110 (neither transporter)
Experimental: as §4, §5

[6] = system: A. nidulans mutant nrtA1 (functional NrtB); experiment: microbe, parasite or virus in culture; type: cell-based, Aspergillus nidulans
Experimental: as §4, §5

[7] = system: A. nidulans mutant nrtB110 (functional NrtA); experiment: microbe, parasite or virus in culture; type: cell-based, Aspergillus nidulans
Experimental: as §4, §5

[8] = system: A. nidulans WT strain (NrtA, NrtB); experiment: MIC growth test on solid AMM, WT strain; type: cell-based, Aspergillus nidulans
Experimental: as §4, §5

A. nidulans WT strain = conditions: ref Wang et al., 2007; cited from earlier work
NrtA [9] = molecular target: T1, NrtA; conditions: cited from earlier work
NrtB [10] = conditions: cited from earlier work
[11] = Aspergillus nidulans, 1 mM proline as sole nitrogen source
[12] = Aspergillus nidulans, 10 mM proline as sole nitrogen source
[13] = Aspergillus nidulans, 10 mM nitrate as sole nitrogen source
[14] = nrtB110 (NrtA), 1 mM nitrate as sole nitrogen source
[15] = nrtB110 (NrtA), 1 mM proline as sole nitrogen source
[16] = nrtB110 (NrtA), 10 mM nitrate as sole nitrogen source
[17] = nrtB110 (NrtA), 10 mM proline as sole nitrogen source
[18] = nrtB110 (NrtA), pH 6.5, in presence of the anion, control without anion 10.6 ± 1.4
[19] = pH 6.5, in presence of the anion, control without anion 2.9 ± 0.1
[20] = 1 mM proline as sole nitrogen source
[21] = 10 mM proline as sole nitrogen source
[22] = 10 mM nitrate as sole nitrogen source
[23] = nitrate transport, nrtB110 (NrtA), no inhibitor, mean ± SE
[24] = nitrate transport, WT, no inhibitor
[25] = nitrate transport, nrtA1 (NrtB), no inhibitor, mean ± SE

O=C(O)O [Bicarbonate, bicarbonate]
Nitrate uptake ± SE (NrtA [1]; nrtB110 (NrtA), pH 8.3, in presence of the anion, control without anion 0.7 ± 0.4): 0.5 ± 0.7 nmol NO3 min^− 1 mg^− 1 | inhibition of nitrate transport / uptake [2]: did not inhibit growth or nitrate uptake | Nitrate uptake ± SE (NrtB [3]; pH 8.3, in presence of the anion, control without anion 1.9 ± 0.7): 1.9 ± 0.3 nmol NO3 min^− 1 mg^− 1 | growth stunting on solid AMM [4]: no convincing phenotypic evidence of growth stunting

[Cs+] [Caesium, caesium]
Ki (NrtA [1]; K i, nrtB110 (NrtA), inhibitor concentration reducing net nitrate uptake rate by 50 % of control, mean ± SE): 55 mM and 54.8 mM | nature of inhibition of nitrate transport (Lineweaver–Burk) (NrtA [1]): non-competitive inhibitor | nature of inhibition of nitrate transport (Lineweaver–Burk) (NrtA [1]; listed as caesium): non-competitive inhibition | Ki (NrtA, NrtB (WT strain)): 45.1 ± 6.1 mM | Ki (NrtA, NrtB (WT strain); listed as caesium): 45 mM | MIC [5, 11]: 100 mM | MIC [5, 12]: > 100 mM | MIC ([6]; Aspergillus nidulans, 1 mM nitrate as sole nitrogen source): 40 mM | MIC [6, 11]: 80 mM | MIC [6, 13]: 30 mM | MIC [6, 12]: 60 mM | MIC ([7]; Aspergillus nidulans): > 100 mM | MIC [7, 14]: >100 mM | MIC [7, 15]: >100 mM | MIC [7, 16]: >100 mM | MIC [7, 17]: >100 mM | nature of inhibition of nitrate transport (Lineweaver–Burk) (NrtB [3]): uncompetitive | nature of inhibition of nitrate transport (Lineweaver–Burk) (NrtB [3]; listed as caesium): uncompetitive inhibition | Ki (NrtB [3]; nrtA1 (NrtB), mean ± SE): 2.6 ± 0.02 mM | Ki (NrtB [3]; nrtA1 (NrtB), mean ± SE, listed as caesium): ~3 mM | MIC ([8]; Aspergillus nidulans, 1 mM nitrate as sole nitrogen source, solid AMM, 37 °C): 100 mM | MIC [8, 11]: 80 mM | MIC [8, 13]: > 100 mM | MIC [8, 12]: 60 mM

O=CO [Formate]
Nitrate uptake ± SE (NrtA [1]; [18]): 8.1 ± 0.4 nmol NO3 min^− 1 mg^− 1 | inhibition of nitrate transport / uptake [2]: did not inhibit growth or nitrate uptake | Nitrate uptake ± SE (NrtB [3]; [19]): 2.7 ± 0.1 nmol NO3 min^− 1 mg^− 1 | growth stunting on solid AMM [4]: no convincing phenotypic evidence of growth stunting

O=C(O)CC(=O)O [Malonate, malonate]
inhibition of nitrate transport / uptake [2]: did not inhibit growth or nitrate uptake | Nitrate uptake ± SE (NrtB [3]; [19]): 2.7 ± 0.2 nmol NO3 min^− 1 mg^− 1 | growth stunting on solid AMM [4]: no convincing phenotypic evidence of growth stunting

O=C(O)C(=O)O [Oxalate]
Nitrate uptake ± SE (NrtA [1]; [18]): 9.7 ± 0.4 nmol NO3 min^− 1 mg^− 1 | inhibition of nitrate transport / uptake [2]: did not inhibit growth or nitrate uptake | Nitrate uptake ± SE (NrtB [3]; [19]): 2.4 ± 0.1 nmol NO3 min^− 1 mg^− 1 | growth stunting on solid AMM [4]: no convincing phenotypic evidence of growth stunting

O=S(O)O [Sulphite, sulphite]
MIC [5, 20]: 15 mM (≈ 1230 µg/mL) | MIC [5, 21]: >25 mM | MIC ([6]; 1 mM nitrate as sole nitrogen source): 15 mM (≈ 1230 µg/mL) | MIC [6, 20]: 15 mM (≈ 1230 µg/mL) | MIC [6, 22]: 15 mM (≈ 1230 µg/mL) | MIC [6, 21]: >25 mM | MIC [7, 14]: 15 mM (≈ 1230 µg/mL) | MIC [7, 15]: 15 mM (≈ 1230 µg/mL) | MIC [7, 16]: 15 mM (≈ 1230 µg/mL) | MIC [7, 17]: >25 mM | concentration at which growth ceased ([4]; media with 10 mM nitrate): 15 mM | concentration at which growth ceased ([4]; media with 10 mM proline): > 25 mM | concentration at which growth ceased ([4]; media with either 1 mM nitrate or proline): 15 mM | MIC ([8]; 1 mM nitrate as sole nitrogen source, solid AMM, 37 °C): 15 mM (≈ 1230 µg/mL) | MIC [8, 20]: 15 mM (≈ 1230 µg/mL) | MIC [8, 22]: 15 mM (≈ 1230 µg/mL) | MIC [8, 21]: >25 mM

O=[N+]([O-])O [nitrate]
rate of nitrate efflux as % of influx (A. nidulans WT strain): 8% | K m (NrtA [1]; [23]): 0.041 ± 0.0048 mM | V max (NrtA [1]; [23]): 9.1 ± 0.8 | K m (NrtA, NrtB (WT strain); [24]): 0.0571 ± 0.0026 mM | V max (NrtA, NrtB (WT strain); [24]): 14.2 ± 0.8 | K m for nitrate (NrtA [9]; ref Unkles et al., 2001): 0.096 mM | K m (NrtB [3]; [25]): 0.0114 ± 0.0024 mM | V max (NrtB [3]; [25]): 3.6 ± 0.2 | K m for nitrate (NrtB [10]; ref Unkles et al., 2001): 0.011 mM

O=NO [nitrite]
K m for nitrite (NrtA [9]; ref Wang et al., 2008): 0.016 mM | K m for nitrite (NrtB [10]; ref Wang et al., 2008): 0.011 mM

[Cl-].[Na+] [sodium chloride]
effect on growth ([4]; 100 mM sodium chloride, control for chloride): no effect on growth

Carbonic acid/bicarbonate
Nitrate uptake ± SE (NrtA [1]; [18]): 11.1 ± 0.4 nmol NO3 min^− 1 mg^− 1 | Nitrate uptake ± SE (NrtB [3]; [19]): 2.7 ± 0.1 nmol NO3 min^− 1 mg^− 1 | growth stunting on solid AMM [4]: no convincing phenotypic evidence of growth stunting
